In brackets after ≈: the same amount, converted by molar mass.
Assays:
[1] = toxicity in the rat (LD50, oral); details: in vivo
water solubility = assay type: physicochemical
in vivo = details: rat, po

Compound `CCCCCCCCCNC(=O)Oc1ccc2c(c1)C1(C)CCN(C)C1N2C` (centres unmarked) [***] has an LD50 [1] of 50 mg/kg.
`CCCCNC(=O)Oc1ccc2c(c1)C1(C)CCN(C)C1N2C` (centres unmarked) [**] gave an LD50 [1] of 6 mg/kg.
For `CCCCCCCNC(=O)Oc1ccc2c(c1)C1(C)CCN(C)C1N2C` (centres unmarked) [Example 1], the solubility (water solubility; water) was 700 mg/mL (≈ 1950 mM).
With `CCCCCCCNC(=O)Oc1ccc2c(c1)C1(C)CCN(C)C1N2C` (centres unmarked) [corresponding non-salified derivative] the “water solubility (in words)” value (water solubility; non-salified derivative) was “insoluble”.
For `CCCCCCCNC(=O)Oc1ccc2c(c1)C1(C)CCN(C)C1N2C` (centres unmarked) [*], the LD50 (in vivo) was 20 mg/kg.

— patent US4978673A, “Organic salts of physostigmine derivatives” (priority 1987, dated 1990)
